Assay results: patent US5939578A, “Vasomolol: an ultra short-acting and vasodilatory vanilloid type β - adrenoceptor antagonist” (Lin; Tong-Ho, priority 1996, dated 1999)

Key:
[1] = tested on: β-adrenoceptor, ventricular membranes; assay: [3H]-DHA saturation binding to ventricular membranes (Scatchard analysis); parameters: species or system pig
Experimental: (§1) Pig's heart were obtained from a local slaughterhouse immediately after the animals had been killed and transported to our laboratory in ice-cold buffer (250 mM sucrose/50 mM Tris [hydroxymethyl] aminomethane HCl/1 mM magnesium chloride, pH 7.4). Various heart tissues were removed and prepared as detailed as described in Cardiovasc. Res. 25, 764, 1991 (by Bjornerheim, R. et al.). In the test for receptor binding, the ventricles were placed in ice-cold buffer and all subsequent procedures were carried out at 4° C. The tissue was homogenised in 20 volumes of TE buffer (10 mmole.litre^-1 Tris-HCl, 1 mmole.litre^-1 EDTA, 0.1 mmole.litre^-1 ascorbic acid, pH 7.4) with three 12-s pulses using a Polytron homogenizer (Kinematica, Model PT 3000, Switzerland). The homogenate was filtered with pressure through muslin and the filtrate centrifuged for 10 min at 1000 g to remove connective tissue, unbroken cells and cell debris. The supernatant was centrifuged again at 10,000 g for 12 min. This second supernatant was then centrifuged for 15 min at 30,000 g and the final pellet was suspended in a assay buffer (75 mM Tris HCl/25 mM MgCl2, pH 7.4).
(§2) Protein was determined by the method in Anal. Biochem. 72, 248, 1976 (by Bradford, M. M. et al.). This membrane preparation has been described in Biochem. Biophys. Acta. 541, 334, 1978 (by Ciaraldi, T. et al.). The binding assay of [^3 H]-DHA was carried out as described in Biochem. Biophys. Res. Commun. 60, 703, 1974 ( by Lefkowitz, R. J. et al.) with slight modifications. [^3 ]-DHA and ventricular membranes (200-300 μg) were incubated for 60 min at 25° C. with and without the addition of 1 μM alprenolol, in 75 mM Tris-HCI buffer comprising MgCl2 25 mM, to make a final volume of 250 μl. In competitive binding experiments, the competing agent was added directly to the incubation mixture. The incubation was terminated by addition of 1 ml of ice-cold assay buffer followed by immediate filtration through Whatman GF/C glass fiber filters supported on a 12-port filter manifold (Millipore). The filters were immediately washed three times with 5 ml of ice-cold assay buffer and dried in an oven at 60° C. for 2 hr prior to adding 5 ml of Triton-toluene based scintillation fluid.
[^3 H]-DHA trapped in the filters was counted in a Wallac LKB 1211 rackbeta liquid scintillation counter with an efficiency of 41%. In each experiment, non-specifically bound [^3 H]-DHA was determined by incubating membrane protein and [^3 H]-DHA with 1 μM alprenolol. Specific binding was thus obtained by deducing this value from the total binding of [^3 H]-DHA for each sample.
[^3 H]dihydroalprenolol([^3 H]DHA) binding curve with pig ventricular membranes. […]

[2] = tested on: phenylephrine-induced pressor response; assay: Inhibition of phenylephrine-induced pressor response during intravenous infusion; type: in vivo, reserpinized rats; conditions: infusion 300 μg/kg/min; phenylephrine 10 μg/kg i.v.; data not shown
Experimental: The method reported in Gen. Pharmacol. 24, 1425, 1993 (by inventor group),
phenylephrine (10 μg/klg, i.v.)

[3] = Blood pressure and heart rate responses to intravenous injection in anesthetized rats; type: in vivo, pentobarbital-anesthetized normotensive Wistar rats
Experimental: Measurement of blood pressure and heart rate
The method reported in Gen.
(§3) vasomolol (0.5, 1.0, 3.0 mg/kg)

β-adrenergic receptor = assay: β-blockade and duration of action: inhibition of (-)isoproterenol-induced tachycardia during and after infusion; type: in vivo, pentobarbital-anesthetized rats
Experimental: Vasomolol (100 μg/kg/min) was infused consecutively into a femoral vein in pentobarbital-anesthetized rats. Each perfusion was maintained for 60 min. Before and during the infusion of vasomolol and esmolol, at 10-min intervals, bolus i.v. injections of (-) isoproterenol (0.5. μg/kg) were administered to assess the level of β-blockade. (-) lsoproterenol injections were also continued for 60 min. after termination of the highest dose of vasomolol and esmolol to assess the duration of β-blockade reported in J. Pharm. Exp. Ther. 237, 912, 1986 (by Quon, C. Y. et al.). The percentage of inhibition of the (-)isoproterenol-induced tachycardia parameter of β-blockade--was calculated during and after infusions of vasomolol.
isoproterenol (0.5 μg/kg)
as §3

[4] = molecular target: T1, β-adrenoceptor, ventricular membranes (Sus scrofa, UniProt Q28998); assay: Competition for [3H]-DHA binding to ventricular membranes; parameters: species or system pig
T1 construct: tissue local slaughterhouse; host or cells: pig heart ventricular membranes
T1 sequence (Q28998 whole entry): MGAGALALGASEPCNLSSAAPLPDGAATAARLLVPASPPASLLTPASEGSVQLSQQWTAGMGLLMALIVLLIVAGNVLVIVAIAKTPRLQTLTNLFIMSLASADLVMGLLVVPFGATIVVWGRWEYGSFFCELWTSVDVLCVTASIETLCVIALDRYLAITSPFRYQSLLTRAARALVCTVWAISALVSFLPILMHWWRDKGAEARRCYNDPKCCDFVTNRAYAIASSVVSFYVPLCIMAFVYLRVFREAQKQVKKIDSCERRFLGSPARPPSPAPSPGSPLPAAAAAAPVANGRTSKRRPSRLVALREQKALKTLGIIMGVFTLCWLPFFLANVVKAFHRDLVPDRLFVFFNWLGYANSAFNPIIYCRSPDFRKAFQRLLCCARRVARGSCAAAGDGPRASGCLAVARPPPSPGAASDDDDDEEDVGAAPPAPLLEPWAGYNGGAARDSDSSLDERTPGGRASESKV
Experimental: as §1, with “Res. 25, 764, 1991 (by Bjornerheim, R. et al.).” left out, “debris.” for “debris. The supernatant was centrifuged again at 10,000 g for 12 min. This second supernatant was then centrifuged for 15 min at 30,000 g and the final pellet was suspended in a assay buffer (75 mM Tris HCl/25 mM MgCl2, pH 7.4).”
as §2, with “This” for “Protein was determined by the method in Anal. Biochem. 72, 248, 1976 (by Bradford, M. M. et al.). This”, “541, 334, 1978 (by Ciaraldi, T. et al.).” left out, “60, 703, 1974 ( by Lefkowitz, R. J. et al.) with slight modifications.” left out
In each experiment, non-specifically bound [^3 H]-DHA was determined by incubating membrane protein and [^3 H]-DHA with 1 μM alprenolol. Specific binding was thus obtained by deducing this value from the total binding of [^3 H]-DHA for each sample.
All incubations were performed as described in the method section. Data shown are the means of three independent duplicate determinations.

blood and liver esterase = conditions: background, Drugs 33, 392, 1987; cited from earlier work
[5] = tested on: right atria and left atrial strips; assay: Intrinsic sympathomimetic activity in isolated right atria and left atrial strips; parameters: species or system reserpinized guinea-pigs; conditions: in words
Experimental: Animals were pretreated with reserpine (10 mg/kg, i.p.) 24 hr prior to the experiment described in Naunyn-Schmiedeberg's Arch. […] All preparations including isolated right atria and left atria strips were studied.
All measurements are expressed as mean percentages of the control frequency or force in the same preparation.

[6] = Blood pressure and heart rate responses to intravenous injection in anesthetized rats; type: in vivo, pentobarbital-anesthetized normotensive Wistar rats; conditions: 0.1 mg/kg i.v.; mean ± SEM (n = 8)
[7] = 0.5 mg/kg i.v., mean ± SEM (n = 8)
[8] = 1.0 mg/kg i.v., mean ± SEM (n = 8)
[9] = 3.0 mg/kg i.v., mean ± SEM (n = 8)

## CCCc1ccccc1OCC(O)CNC(C)C (centres unmarked) [[^3 H]-DHA, [^3 H]dihydroalprenolol]
[1]; 25° C., mean±S.E.M., Scatchard
  maximum binding capacity (Bmax): 120.3±6.0 fmol/mg protein
[1]; 25° C., mean±S.E.M., Scatchard, read-out: equilibrium dissociation constant (Kd)
  Kd: 0.0081 ± 0.0009 µM
[1]; data not shown
  duration of maintained binding equilibrium: up to 90 min
  time to reach binding equilibrium: approximately 20 min

## COC(=O)CCc1ccc(OCC(O)CNC(C)C)cc1 (centres unmarked) [Esmolol]
[2]
  inhibition of phenylephrine-induced pressor response: could not significantly inhibit
[3]; [7]
  BP change: -4.0 ± 0.8 mm Hg
  HR change: -25.7 ± 2.4 bpm
  bradycardia duration: 3.7 ± 0.6 min
[3]; [8]
  BP change: -6.3 ± 1.3 mm Hg
  HR change: -37.5 ± 3.6 bpm
  bradycardia duration: 6.0 ± 1.3 min
[3]; [9]
  BP change: -8.7 ± 0.9 mm Hg
  HR change: -58.2 ± 4.7 bpm
  bradycardia duration: 7.5 ± 1.1 min
[3]; i.v. injection
  bradycardia duration: less than 10 min
β-adrenergic receptor; after initiating each infusion rate, isoproterenol 0.5 μg/kg
  onset of β-blockade to steady-state level: ≤ 10 min
β-adrenergic receptor; after termination of infusion, mean±S.E.M.
  time required for 50% recovery: 9.5 ± 1.0 min
β-adrenergic receptor; in words
  disappearance of β-blockade after termination of infusion: disappeared rapidly after the termination of infusion
[4]; in words
  order of potency inhibiting [3H]-DHA binding: (-) propranolol>>vasomolol=esmolol
[4]; mean±S.E.M.
  IC50: 5 ± 1.3 µM
Blood and liver esterase
  metabolism by blood and liver esterase: rapidly metabolized by blood and liver esterase

## CC(C)NCC(O)c1ccc(O)c(O)c1 (centres unmarked) [isoproterenol, reference compound]
[5]; cumulative concentrations
  intrinsic sympathomimetic activity: effect on heart rate and contractility: produced concentration-dependent increases in heart rate and contractility

## CC(C)NCC(O)COc1cccc2ccccc12 (centres unmarked) [Propranolol]
[6]
  HR change: -30.7 ± 3.8 bpm
[5]
  negative inotropic and chronotropic effects: produced negative inotropic and chronotropic effects
[3]; 0.1 mg/kg i.v., mean ± SEM (n = 8)
  BP change: 3.9 ± 1.0 mm Hg
[3]; [7]
  BP change: 7.0 ± 1.6 mm Hg
  HR change: -50.6 ± 8.1 bpm
[3]; [8]
  BP change: 9.5 ± 1.1 mm Hg
  HR change: -65.0 ± 8.9 bpm
